Experimental data reported in ChEMBL document CHEMBL1201862, “PubChem BioAssay data set” (2004).
The source made the active and inactive calls.

Tests used:
Estrogen receptor [1] = molecular target: T1, Estrogen receptor (Homo sapiens, UniProt P03372); test: ERα–SRC-3 coactivator interaction inhibitors, confirmation, orthogonal assay, biochemical, ELISA, streptavidin-HRP readout (AID 1079)
T1 sequence (P03372 whole entry): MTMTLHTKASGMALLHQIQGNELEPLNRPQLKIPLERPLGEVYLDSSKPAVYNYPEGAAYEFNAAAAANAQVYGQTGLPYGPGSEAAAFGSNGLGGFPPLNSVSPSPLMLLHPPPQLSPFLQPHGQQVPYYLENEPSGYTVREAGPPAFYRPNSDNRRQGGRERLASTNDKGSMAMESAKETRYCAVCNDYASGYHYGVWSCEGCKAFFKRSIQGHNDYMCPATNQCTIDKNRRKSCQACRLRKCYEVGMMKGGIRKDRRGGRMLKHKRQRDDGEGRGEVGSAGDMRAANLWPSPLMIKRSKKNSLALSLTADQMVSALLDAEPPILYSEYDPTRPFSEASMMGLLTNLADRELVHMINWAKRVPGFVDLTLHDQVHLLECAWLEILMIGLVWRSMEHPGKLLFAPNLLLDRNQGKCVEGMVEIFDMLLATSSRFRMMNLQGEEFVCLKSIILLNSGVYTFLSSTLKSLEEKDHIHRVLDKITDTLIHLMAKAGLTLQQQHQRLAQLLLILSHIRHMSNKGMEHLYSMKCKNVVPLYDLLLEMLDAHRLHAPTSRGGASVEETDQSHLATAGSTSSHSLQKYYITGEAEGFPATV

Protein Tat = molecular target: T2, Protein Tat (Human immunodeficiency virus type 1 group M subtype B (isolate HXB2)(HIV-1), UniProt P04608); format: functional;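 further: tat binding to TAR RNA read out by fluorescence polarization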
T2 sequence (P04608 whole entry): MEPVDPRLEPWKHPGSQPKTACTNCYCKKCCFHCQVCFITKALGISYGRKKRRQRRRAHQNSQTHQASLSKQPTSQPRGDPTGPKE

[2] = molecular target: Induced myeloid leukemia cell differentiation protein Mcl-1 (Homo sapiens, UniProt Q07820); test: MCL1-BIM BH3 interaction inhibitors, dose response, biochemical, fluorescence polarization, BIM-BH3 peptide, 1536-well (AID 2217)
Chain of Induced myeloid leukemia cell differentiation protein Mcl-1 (Q07820 whole entry): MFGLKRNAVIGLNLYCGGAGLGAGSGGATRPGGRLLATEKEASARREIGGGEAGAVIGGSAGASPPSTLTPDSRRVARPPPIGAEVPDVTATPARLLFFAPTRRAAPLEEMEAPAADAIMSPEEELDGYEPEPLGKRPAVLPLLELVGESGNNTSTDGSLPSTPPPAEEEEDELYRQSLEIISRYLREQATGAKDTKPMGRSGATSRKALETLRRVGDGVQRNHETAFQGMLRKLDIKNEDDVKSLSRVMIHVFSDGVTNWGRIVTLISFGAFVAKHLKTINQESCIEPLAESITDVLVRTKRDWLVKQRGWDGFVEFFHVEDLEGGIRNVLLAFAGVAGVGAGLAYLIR

Bcl-2-like protein 1 = Bcl-2-like protein 1 (Homo sapiens, UniProt Q07817); test: BCL-XL inhibitors, dose response, selectivity assay for MCL1 inhibitor project, biochemical, fluorescence polarization, 1536-well (AID 2218)
Chain of Bcl-2-like protein 1 (Q07817 whole entry, the tested form may be a part): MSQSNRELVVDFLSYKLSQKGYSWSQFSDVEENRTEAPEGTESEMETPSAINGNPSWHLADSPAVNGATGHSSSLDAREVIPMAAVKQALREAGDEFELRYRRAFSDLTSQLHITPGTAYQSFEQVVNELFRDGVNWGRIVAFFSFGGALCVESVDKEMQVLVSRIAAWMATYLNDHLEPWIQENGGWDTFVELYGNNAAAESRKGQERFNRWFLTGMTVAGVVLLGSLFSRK

[3] = molecular target: T3, Carboxy-terminal domain RNA polymerase II polypeptide A small phosphatase 1 (Homo sapiens, UniProt Q9GZU7); test: inhibitors of CTDSP1, concentration-response testing, biochemical assay, absorbance-based, actives from ultra-high-throughput screening (AID 540297); format: functional
T3 sequence (Q9GZU7 whole entry): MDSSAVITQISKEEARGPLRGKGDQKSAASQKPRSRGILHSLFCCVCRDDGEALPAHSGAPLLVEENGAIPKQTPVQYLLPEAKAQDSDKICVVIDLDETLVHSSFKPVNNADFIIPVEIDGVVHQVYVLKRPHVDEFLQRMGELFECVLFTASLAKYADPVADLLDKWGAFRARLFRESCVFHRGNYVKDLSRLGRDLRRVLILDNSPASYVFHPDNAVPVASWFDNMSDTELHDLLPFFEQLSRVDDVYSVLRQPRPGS

[4] = enhancers of respiration in Yfh1-depleted yeast, dose response, Friedreich's ataxia, plus single-dose screen (AID 1465); format: functional;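 further: yeast depleted of Yfh1p frataxin homolog grown on glycerol needing respiration; WST-1 tetrazolium dye reduction as measure of cellular dehydrogenase metabolic activity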
[5] = molecular target: Serine/threonine-protein phosphatase (Homo sapiens, UniProt Q9BPW0); test: Counterscreen for inhibitors of PP1: fluorescence-based biochemical high throughput dose response assay to identify inhibitors of Protein Phosphatase 5 (PP5). [Related pubchem assays: 2034 (Summary (PP5 inhibitors)), 1987 (PP5 inhibitors in singlate), 2235 (PP1 inhibitors in singlate)]
Chain of Serine/threonine-protein phosphatase (Q9BPW0 whole entry): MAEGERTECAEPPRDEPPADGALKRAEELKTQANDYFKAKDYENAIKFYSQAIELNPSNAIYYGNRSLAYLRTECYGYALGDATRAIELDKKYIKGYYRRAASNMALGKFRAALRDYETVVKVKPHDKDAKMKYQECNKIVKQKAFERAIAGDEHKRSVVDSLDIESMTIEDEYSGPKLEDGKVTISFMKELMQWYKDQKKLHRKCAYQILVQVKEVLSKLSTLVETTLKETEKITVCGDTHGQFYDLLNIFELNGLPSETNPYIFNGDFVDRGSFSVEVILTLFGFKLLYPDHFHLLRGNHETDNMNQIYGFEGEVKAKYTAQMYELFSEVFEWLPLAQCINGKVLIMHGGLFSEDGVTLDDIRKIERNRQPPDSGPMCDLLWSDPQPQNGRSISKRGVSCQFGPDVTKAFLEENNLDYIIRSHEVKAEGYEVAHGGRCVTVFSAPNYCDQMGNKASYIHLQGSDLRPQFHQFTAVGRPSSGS

[6] = molecular target: Serine/threonine-protein phosphatase PP1-alpha catalytic subunit (Homo sapiens, UniProt P62136); test: PP1 phosphatase inhibitors, dose response, biochemical, fluorescence (AID 2403);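 further: phosphatase turnover of OMFP into fluorescent 3-O-methylfluorescein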
Chain of Serine/threonine-protein phosphatase PP1-alpha catalytic subunit (P62136 whole entry): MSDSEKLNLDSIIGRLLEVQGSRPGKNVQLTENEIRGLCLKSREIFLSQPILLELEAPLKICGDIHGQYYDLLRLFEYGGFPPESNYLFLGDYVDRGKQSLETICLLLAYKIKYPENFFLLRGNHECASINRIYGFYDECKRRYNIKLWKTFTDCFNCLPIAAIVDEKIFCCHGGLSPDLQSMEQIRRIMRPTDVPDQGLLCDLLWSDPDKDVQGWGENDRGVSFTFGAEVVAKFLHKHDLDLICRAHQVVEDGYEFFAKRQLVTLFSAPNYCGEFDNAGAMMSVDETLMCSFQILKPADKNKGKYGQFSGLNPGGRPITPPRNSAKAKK

[7] = cytotoxicity in HPDE-C7 cells, cell-based, fluorescence, HTS (AID 430); format: functional; conditions: Homo sapiens
Estrogen receptor [8] = molecular target: T1, Estrogen receptor; test: potentiators of ERα–SRC-1 coactivator binding, dose response, biochemical, TR-FRET, ERα LBD (AID 737)
[9] = cytotoxicity in KRAS-transformed pancreatic duct cells, primary screen, cell-based, fluorescence, HTS (AID 431); format: functional; conditions: Homo sapiens;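 further: cell line used: HPDE-C7K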

O=C(CCCn1c(=S)[nH]c2ccccc2c1=O)N1CCC(c2ccccc2)CC1
IC50 (Estrogen receptor [1]): 0.05 µM (not active)

Cc1ccc(NC(=O)c2cc(-c3ccc(C)o3)nc3ccccc23)nc1
IC50 (Protein Tat): > 100 µM (active)
IC50 [2]: > 109 µM (not active)
IC50 (Bcl-2-like protein 1): > 109 µM (not active)
IC50 [3]: 4.78 µM (active)

S=C(NCc1ccc2c(c1)OCO2)Nc1ccc(-c2nc3ccccc3[nH]2)cc1
EC50 [4]: > 100 µM (active)

CCOC(=O)c1cnc(-n2cc(C)cn2)nc1NCc1ccc2c(c1)OCO2
IC50 [5]: > 67 µM (not active)
IC50 [6]: 5.96 µM (active)

CCC(=O)Oc1ccc(C(CC)C(CC)c2ccc(OC(=O)CC)cc2)cc1 (stereo unspecified)
EC50 [7]: 9.19 µM (active)
EC50 (Estrogen receptor [8]): 10.2 µM (active)
EC50 [9]: 10.7 µM (active)
